Results taken from patent US20220389515A1, “USE OF BIOMARKERS TO PREDICT CLINICAL SENSITIVITY TO 2-(4-CHLOROPHENYL)-N-((2-(2,6-DIOXOPIPERIDIN-3-YL)-1-OXOISOINDOLIN-5-YL)METHYL)-2,2-DIFLUOROACETAMIDE” (priority 2019, published 2022).

Tests used:
[1] = biological target: T1, cereblon to IKZF1 (Homo sapiens, UniProt Q96SW2); test: Cereblon binding assay with cell extracts (anti-HA immunoprecipitation), IKZF1; conditions: wild-type FLAG-HA-CRBN; compound added directly into the binding assay
T1 construct: expressed in transfected cells; host or cells: 293FT CRBN-/- cells (transient transfection; cell extracts, anti-HA immunoprecipitation)
From the text: FIG. 3A illustrates FLAG-HA tagged cereblon wild-type (FLAG-HA-CRBN) or Y384A/W386A mutant (FLAG-HA-YWAA) produced in 293FT CRBN−/− cells was used to capture V5 tagged GSPT1 (GSPT1-V5) and V5 tagged IKZF1 (IKZF1-V5) transiently expressed in 293FT CRBN−/− cells. […] FIG. 3B illustrates the surface representation of GSPT1 in complex with cereblon, DDB1 and Compound D, with DDB1 shown in purple, cereblon in blue, and GSPT1 in orange. The position of Compound D is shown with a white arrow. FIG. 3C illustrates the Fo-Fc omit electron density (green mesh) for Compound D (yellow sticks) contoured at 3.06. […] Hydrogen bond interactions between cereblon and the GPST1 β-hairpin are shown as yellow dashes. FIG. 3E illustrates details of the binding interface between cereblon and GSPT1. Compound D is represented as yellow sticks. Predicted polar interactions between Compound D and cereblon are shown as yellow dashes. FIG. 3F illustrates the immunoblot analysis of U937 parental cells or cells stably expressing HA-GSPT1-G575N. Cells were treated with DMSO or Compound D at the indicated concentrations. FIGS. 3G and 311 illustrate the immunoblot analysis (left panel) and cell proliferation (right panel) of MOLM-13 (FIG. 3G) and OCI-AML2 (FIG. 311) parental cells and cells stably expressing HA tagged GSPT1-G575N. Cells were treated with DMSO or Compound D at indicated concentrations.

[2] = test system: U937 cells stably expressing Cas9; test: Genome-wide CRISPR-Cas9 screen of Compound D response; assay type: cell-based, human
Method: FIG. 4A illustrates the schematic showing the design of the genome-wide CRISPR screen to identify molecular determinants of Compound D response. FIG. 4B illustrates the cell proliferation curve of U937-Cas9 cells transduced with the lentiviral sgRNA library and treated with DMSO or Compound D. Three days post-transduction, cells were treated with DMSO or 10 μM Compound D for 9 days. FIG. 4C illustrates normalized sgRNA read count comparison of different treatment conditions and technical replicates on day 3 and day 12 post-transduction of the lentiviral sgRNA library. 150 k sgRNAs are used in the scatter plots. Numbers in the upper right boxes indicate the Pearson correlation coefficient between samples. “***” indicates the correlation p-value is <0.001. sgRNAs targeting UBE2G1 or CRBN were shown in green and red, respectively. FIG. 4D illustrates pathway enrichment analysis of genes enriched by Compound D treatment with log 2 fold change (log 2FC)>2 and false discovery rate (FDR)<0.05 relative to the DMSO control. The color and size of the dots represent adjusted significance level and gene ratio respectively. Gene ratios refer to the number of input genes annotated to an individual pathway as a ratio of all input genes annotated to any Reactome pathway. […] The X axis denotes the Compound D enrichment score shown as log 2FC; the Y axis denotes the gene essentiality score shown as log 2FC (T12_DMSO vs T3_DMSO). Some of these genes were grouped into 10 functional modules with different color coding. […] Enriched pathways from the Reactome database were identified using Fisher's exact test and were selected by adjusted p-value (FDR)<0.05. Pathway nodes are color-coded with different shades of red according to their statistical significance. The grey nodes in the graph depict pathway genes that were enriched by Compound D treatment. The core enriched pathways modulating the response to Compound D are highlighted with green circles. FIGS. 4G and 4H show the log 2FC values of sgRNAs targeting Compound D enriched genes in the functional modules as indicated. […]

T1 sequence (Q96SW2 whole entry): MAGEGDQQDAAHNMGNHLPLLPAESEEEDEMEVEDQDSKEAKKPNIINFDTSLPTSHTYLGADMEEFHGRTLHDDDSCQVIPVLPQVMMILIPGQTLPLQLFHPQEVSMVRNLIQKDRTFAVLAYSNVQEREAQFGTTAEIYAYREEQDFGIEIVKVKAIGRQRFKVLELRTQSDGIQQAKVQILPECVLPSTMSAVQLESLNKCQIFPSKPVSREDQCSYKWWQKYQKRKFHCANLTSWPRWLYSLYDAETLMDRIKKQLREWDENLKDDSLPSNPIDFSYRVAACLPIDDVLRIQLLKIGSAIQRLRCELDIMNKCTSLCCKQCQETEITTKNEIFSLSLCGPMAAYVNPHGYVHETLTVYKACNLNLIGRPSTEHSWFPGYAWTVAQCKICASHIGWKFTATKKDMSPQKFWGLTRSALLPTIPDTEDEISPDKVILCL

O=C1CCC(N2Cc3cc(CNC(=O)C(F)(F)c4ccc(Cl)cc4)ccc3C2=O)C(=O)N1 (stereo not shown) [Compound D, 2-(4-chlorophenyl)-N-((2-(2,6-dioxopiperidin-3-yl)-1-oxoisoindolin-5-yl)methyl)-2,2-difluoroacetamide]
binding of cereblon to IKZF1 [1]: not IKZF1
growth of U937 cells transduced with the lentiviral CRISPR library ([2]; 10 μM, 9 days): growth arrest of U937 cells
genes whose knockout conferred resistance (sgRNA enrichment) ([2]; U937-Cas9, 1 μM or 10 μM): knockout of CRBN, TSC1, TSC2, ILF2, ILF3, ATF4, GCN2, DDIT4 or GCN1L1 genes conferred resistance to lethal doses of Compound D
genes whose knockout enhanced sensitivity (sgRNA drop-out) ([2]; U937-Cas9, sensitivity screen): knockout of RPTOR, MTOR, RICTOR, GSPT1 or DDX5 enhanced sensitivity to lethal doses of Compound D
